Results from the supplement of paper PMC10307832.

Tests used:
Test in all cases: relative viability (nuclei count vs DMSO), 5 days (fraction); higher = more cells survive
XMD14-99 = compound: CN1CCN(CC1)C2=CC(=C(C=C2)NC3=NC(=C(S3)C(=O)C4=C(C=CC=C4Cl)Cl)N)OC [XMD14-99]
Outline: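 Viability was read as treated-well nuclei divided by vehicle-well nuclei, using the median across plates. Lung cancer cell lines in 1536-well plates were kept overnight at 37 °C, pinned with five √10-spaced library-drug doses, and after 5 days were Hoechst-stained, imaged at 4× and counted in MetaXpress. Plates passed only with control CV below 25% and at least one doubling.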

XMD14-99 + Bortezomib = compound: CN1CCN(CC1)C2=CC(=C(C=C2)NC3=NC(=C(S3)C(=O)C4=C(C=CC=C4Cl)Cl)N)OC [XMD14-99] + CC(C)C[C@H](NC(=O)[C@H](Cc1ccccc1)NC(=O)c1cnccn1)B(O)O [Bortezomib] (partner 0.002 µM)
Outline: (§1)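 Five library-drug doses in √10 steps were combined with a fixed anchor-drug dose, or a single drug was given alone, by pin tool to lung cancer cell lines in 1536-well plates the day after seeding. Nuclei were stained and counted after 5 days. Relative viability is the nuclei count in treated wells over that in vehicle wells, taken as the median of duplicate plates.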

XMD14-99 + Pemetrexed = compound: CN1CCN(CC1)C2=CC(=C(C=C2)NC3=NC(=C(S3)C(=O)C4=C(C=CC=C4Cl)Cl)N)OC [XMD14-99] + Nc1nc2[nH]cc(CCc3ccc(C(=O)N[C@@H](CCC(=O)O)C(=O)O)cc3)c2c(=O)[nH]1 [Pemetrexed] (partner 0.2 µM)
Outline: as §1

AZD1208 + Phenformin = compound: N[C@@H]1CCCN(c2c(/C=C3\SC(=O)NC3=O)cccc2-c2ccccc2)C1 [AZD1208] + N=C(N)NC(=N)NCCc1ccccc1 [Phenformin] (partner 250 µM)
Outline: as §1

Cell Line	relative viability (XMD14-99; 0.08 µM)	relative viability (XMD14-99; 0.8 µM)	relative viability (XMD14-99; 2.53 µM)	relative viability (XMD14-99; 8 µM)	relative viability (XMD14-99 + Bortezomib; first compound 0.08 µM)	relative viability (XMD14-99 + Bortezomib; first compound 0.8 µM)	relative viability (XMD14-99 + Bortezomib; first compound 2.53 µM)	relative viability (XMD14-99 + Bortezomib; first compound 8 µM)	relative viability (XMD14-99 + Pemetrexed; first compound 0.08 µM)	relative viability (XMD14-99 + Pemetrexed; first compound 0.8 µM)	relative viability (XMD14-99 + Pemetrexed; first compound 2.53 µM)	relative viability (XMD14-99 + Pemetrexed; first compound 8 µM)	relative viability (AZD1208 + Phenformin; first compound 0.08 µM)	relative viability (AZD1208 + Phenformin; first compound 0.253 µM)	relative viability (AZD1208 + Phenformin; first compound 0.8 µM)	relative viability (AZD1208 + Phenformin; first compound 2.53 µM)	relative viability (AZD1208 + Phenformin; first compound 8 µM)
201T	0.993	0.986	0.99	0.804	1.11	1.08	1.03	1.03	0.331	0.356	0.32	0.281	0.434	0.444	0.429	0.427	0.351
A549	0.955	0.97	0.898	0.726									0.157	0.172	0.168	0.132	0.127
A-427	1.05	0.939	0.866	0.643	0.933	0.924	0.77	0.829	0.952	0.946	0.892	0.645	0.318	0.367	0.257	0.323	0.262
ABC-1	0.99	1.03	0.964	0.727	0.296	0.343	0.346	0.281					0.232	0.238	0.212	0.229	0.2
BEN	0.969	0.988	0.961	0.801	0.88	0.901	0.924	0.531	0.747	0.794	0.845	0.492	0.269	0.267	0.244	0.259	0.269
CAL-12T	0.974	1.01	0.933	0.692	1.07	0.954	0.899	0.634	1.2	1.28	1.12	0.885	0.517	0.698	0.557	0.522	0.576
COR-L23	1.04	0.891	0.946	0.693	1	0.816	0.86	0.576	0.192	0.207	0.166	0.184	0.491	0.469	0.417	0.419	0.408
COR-L 105	0.852	1.14	0.706	0.718	0.841	0.805	0.614	0.473	1.14	0.855	0.965	0.788	0.476	0.567	0.478		0.477
Calu-6	0.937	0.932	0.936	0.785	0.944	0.875	0.85	0.598									
ChaGo-K-1	0.97	1.03	0.961	0.939	1.06	1.02	0.964	0.92	0.257	0.256	0.263	0.233	0.54	0.569	0.524	0.475	0.373
EBC-1	0.962	0.924	0.842	0.637	0.57	0.503	0.384	0.285									
EKVX	0.98	0.892	0.954	0.812	0.965	0.998	0.983	0.736	0.366	0.338	0.328	0.362	0.23	0.247	0.258	0.256	0.228
EMC-BAC-2	1.01	1.03	0.889	0.645	0.989	1.08	0.995	0.923	0.437	0.449	0.403	0.368	0.535	0.63	0.497	0.509	0.428
EPLC-272H	1.09	0.998	0.942	0.787	0.886	1.01	0.904	0.912	0.406	0.335	0.324	0.291	0.313	0.329	0.305	0.272	0.244
H3255	0.955	0.957	0.802	0.684	0.729	0.895	0.532	0.297	0.558	0.526	0.518	0.433	0.37	0.353	0.372	0.401	0.405
HARA	0.894	0.947	0.701	0.692	1.15	1.14	0.922	0.867	0.21	0.29	0.265	0.237	0.454	0.498	0.377	0.474	0.468
HCC-15	1.02	1.03	0.922	0.759	1.04	0.999	0.896	0.769	0.208	0.218	0.221	0.209	0.431	0.491	0.459	0.428	0.316
HCC-44	1.04	0.969	1.02	0.948	0.882	0.823	0.933	0.806	0.648	0.65	0.63	0.627	0.219	0.202	0.172	0.147	0.176
HCC-78	0.985	0.841	0.883	0.571	0.443	0.482	0.461	0.47	0.852	0.899	0.943	0.934	0.766	1.03	0.692	0.753	0.644
HCC-366	0.988	0.996	1.01	0.894	1.04	1.05	1.03	0.884	0.219	0.18	0.18	0.128	0.588	0.668	0.538	0.655	0.431
HCC-827	1.06	0.972	0.961	0.881	1.12	0.994	0.976	0.802	0.214	0.255	0.265	0.218	0.423	0.436	0.425	0.418	0.378
HOP-62	1.01	1	0.993	0.868	0.604	0.694	0.863	0.605	0.368	0.364	0.36	0.331	0.689	0.745	0.664	0.628	0.613

Cell Line	relative viability (XMD14-99; 0.08 µM)	relative viability (XMD14-99; 0.8 µM)	relative viability (XMD14-99; 2.53 µM)	relative viability (XMD14-99; 8 µM)	relative viability (XMD14-99 + Bortezomib; first compound 0.08 µM)	relative viability (XMD14-99 + Bortezomib; first compound 0.8 µM)	relative viability (XMD14-99 + Bortezomib; first compound 2.53 µM)	relative viability (XMD14-99 + Bortezomib; first compound 8 µM)	relative viability (XMD14-99 + Pemetrexed; first compound 0.08 µM)	relative viability (XMD14-99 + Pemetrexed; first compound 0.8 µM)	relative viability (XMD14-99 + Pemetrexed; first compound 2.53 µM)	relative viability (XMD14-99 + Pemetrexed; first compound 8 µM)	relative viability (AZD1208 + Phenformin; first compound 0.08 µM)	relative viability (AZD1208 + Phenformin; first compound 0.253 µM)	relative viability (AZD1208 + Phenformin; first compound 0.8 µM)	relative viability (AZD1208 + Phenformin; first compound 2.53 µM)	relative viability (AZD1208 + Phenformin; first compound 8 µM)
IA-LM	0.947	0.86	0.758	0.472	0.783	0.79	0.47	0.394									
LC-2-ad	0.973	0.963	0.929	0.775	0.993	0.978	1	0.732	0.268	0.298	0.268	0.293	0.585	0.604	0.52	0.534	0.519
LCLC-97TM1	0.982	1	0.828	0.571	0.801	0.629	0.625	0.33	0.19	0.173	0.198	0.167	0.358	0.498	0.429	0.447	0.335
LCLC-103H	0.953	1.02	0.963	0.907	0.991	1.08	1.07	0.995	0.467	0.475	0.426	0.468	0.317	0.246	0.323	0.315	0.28
LK-2	0.914	1.04	1.09	0.913					0.219	0.247	0.258	0.119	0.402	0.218	0.179	0.188	0.135
LOU-NH91	1.06	0.922	0.898	0.829	0.498	0.416	0.451	0.447	0.351	0.379	0.319	0.415	0.715	0.691	0.659	0.684	0.574
LU99A	0.982	1.03	0.896	0.8	1.17	1.06	1.11	0.956	0.199	0.174	0.191	0.156	0.871	0.921	0.965	0.764	0.638
NCI-H358	0.959	0.895	0.851	0.57					0.16	0.142	0.178	0.146	0.325	0.353	0.309	0.305	0.259
NCI-H522	0.891	1.01	1.07	1					0.867	1.04	1.14	1.08	0.614	0.678	0.569	0.618	0.479
NCI-H727	1.03	0.815	0.846	0.567	0.895	0.827	0.625	0.575					0.359	0.497	0.514	0.532	0.524
NCI-H1299	0.996	0.98	0.941	0.859	1.09	1	0.944	0.83									
NCI-H1395	0.981	0.951	0.997	0.695					0.838	0.953	0.904	0.729	0.442	0.438	0.46	0.506	0.417
NCI-H1623	0.959	0.99	1.01	0.804									0.573	0.642	0.593	0.548	0.611
NCI-H1648	0.845	0.713	0.734	0.454					0.61	0.564	0.554	0.542					
NCI-H1703	0.89	0.912	0.91	0.761	0.334	0.235	0.268	0.211									
NCI-H1793	0.881	0.892	0.839	0.688					0.947	1	0.83	0.631	0.314	0.453	0.342	0.307	0.274
NCI-H1944	0.906	0.917	0.817	0.809					0.595	0.605	0.602	0.481	0.197	0.201	0.179	0.172	0.136
NCI-H2170	0.97	1.01	0.995	0.925					0.247	0.266	0.251	0.247	0.458	0.385	0.444	0.438	0.447
NCI-H2342	0.957	0.932	1.02	0.761					0.785	0.748	0.815	0.762	0.563	0.585	0.52	0.569	0.462
SK-MES-1	1.02	0.994	0.976	0.664					0.939	0.833	0.882	0.659	0.668	0.672	0.648	0.696	0.621
SW 900	0.918	0.976	0.753	0.66					0.518	0.476	0.461	0.471	0.624	0.852	0.397	0.503	0.384
